# Measured values from article PMC9395488, “First-in-human study of IM156, a novel potent biguanide oxidative phosphorylation (OXPHOS) inhibitor, in patients with advanced solid tumors” (Investigational New Drugs, 2022).
# Tested on: patients with advanced solid tumors
# Assay: First-in-human phase 1 dose-escalation study: safety, DLTs, adverse events
# Type: in vivo
# Source text: This multicenter first-in-human dose-escalation phase 1 study (clinicaltrials.gov identifier: NCT03272256) was designed to determine the MTD or RP2D and to evaluate the safety and tolerability of IM156. Secondary endpoints included PK characteristics, efficacy assessment (objective response rate [ORR], disease control rate [DCR], duration of response [DoR] and progression-free survival [PFS]). Furthermore, exploratory objectives included identification and profiling of IM156 metabolites, evaluations of exploratory PD markers of IM156, and evaluations of any potential relationship between putative biomarkers and safety/efficacy parameters of IM156. The study was conducted in accordance with Good Clinical Practice, the International Council for Harmonisation, and guidelines governing clinical study conduct and the ethical principles originating from the Declaration of Helsinki. The study was approved by each Institutional Review Board and patients provided written informed consent. Patients were enrolled at three sites in South Korea.
# The initial dose and schedule of IM156 was chosen based on animal toxicology studies. […] IM156 was administered in the fasted state, with no food for at least 2 h before and 1 h after dosing.
# Three DLT-evaluable patients were enrolled at each dose level. If there were no DLTs or other prohibitive adverse events (AEs), the Safety Committee was allowed to recommend escalation to the next highest dose level. If 1 DLT occurred in the first 3 DLT-evaluable patients, enrollment in that cohort was expanded to an additional 3 DLT-evaluable patients; if ≥ 2 DLTs were reported in a cohort, that dose was considered above the MTD.
# Safety was assessed through vital signs, weight, laboratory assessments, physical examinations, electrocardiogram, and reporting of AEs as graded by the National Cancer Institute’s Common Terminology Criteria for Adverse Events v4.03 (NCI-CTCAE).
# DLTs were defined as the following AEs if they were attributed as related to IM156: asymptomatic grade 4 neutropenia lasting for ≥ 5 days; febrile neutropenia, regardless of grade; grade 4 thrombocytopenia or grade 3 thrombocytopenia with bleeding; any grade ≥ 3 non-hematologic AE (except grade 3 hypertension and grade 3 nausea, vomiting or diarrhea for which proper measures for prevention and treatment were not implemented, and alopecia); blood lactate levels > 5 mmol; grade ≥ 2 AE prohibiting dosing of IM156 for ≥ 21 continuous days except for alterations in serum calcium or phosphorus levels. The safety analysis includes all patients who received at least one dose of study drug.
# The safety population was defined as all patients who received at least one dose of IM156. The PK population was not defined in the protocol but included all patients with sufficient PK data to perform adequate PK modeling. The efficacy population included all patients who underwent at least one tumor imaging assessment while receiving IM156. Safety was assessed using descriptive statistics (e.g., DLTs, AEs, laboratory tests, physical examination, 12-lead ECG). The incidence and number of events were reported for the DLTs observed in Cycle 1 per dose group. […] Adverse events and TRAEs were standardized with the System Organ Class and the Preferred Term using the Medical Dictionary for Regulatory Activities v23.0. In addition, TEAEs, serious adverse events (SAEs), TEAE severity, and TEAEs leading to withdrawal were presented by dose group. Efficacy data were to be presented by Waterfall and Swim Lane plots. Time to event endpoints (e.g., DoR, PFS) were determined using Kaplan–Meier estimations with the median value for each endpoint summarized.
# [1] = DL1 100 mg orally every other day (n=3)
# [2] = DL2 200 mg orally every other day (n=3)
smiles,measurement,setting,value
NC(=Nc1ccc(OC(F)(F)F)cc1)N=C(N)N1CCCC1 [IM156],TEAE Psychiatric disorders grade 1,[1],0
same,TEAE Psychiatric disorders grade 2,[1],0
same,TEAE Psychiatric disorders grade 3,[1],0
same,TEAE Psychiatric disorders grade 4,[1],0
same,TEAE Purpura grade 1,[1],0
same,TEAE Purpura grade 2,[1],0
same,TEAE Purpura grade 3,[1],0
same,TEAE Purpura grade 4,[1],0
same,TEAE Urinary retention grade 1,[1],0
same,TEAE Urinary retention grade 2,[1],0
same,TEAE Urinary retention grade 3,[1],0
same,TEAE Urinary retention grade 4,[1],0
same,TEAE Urinary tract disorder grade 1,[1],0
same,TEAE Urinary tract disorder grade 2,[1],0
same,TEAE Urinary tract disorder grade 3,[1],0
same,TEAE Urinary tract disorder grade 4,[1],0
same,"TEAE Abdominal pain, grade 2",DL2 200 mg QOD (n=3),1
same,"TEAE Alanine aminotransferase increased, grade 1",DL2 200 mg QOD (n=3),1
same,"TEAE Asthenia, grade 1",DL2 200 mg QOD (n=3),1
same,"TEAE Cough, grade 1",DL2 200 mg QOD (n=3),1
same,"TEAE Diarrhoea, grade 2",DL2 200 mg QOD (n=3),1
same,"TEAE Ileus, grade 3",DL2 200 mg QOD (n=3),1
same,"TEAE Nausea, grade 1",DL2 200 mg QOD (n=3),1
same,"TEAE Pleural effusion, grade 2",DL2 200 mg QOD (n=3),1
same,"TEAE Pyrexia, grade 1",DL2 200 mg QOD (n=3),1
same,"TEAE Vomiting, grade 1",DL2 200 mg QOD (n=3),2
same,"TRAE Abdominal Pain, > G3 (patients)","DL2 200 mg QOD oral, N = 3",0
same,"TRAE Abdominal Pain, All grades (patients)","DL2 200 mg QOD oral, N = 3",0
same,"TRAE Blood Lactic Acid increased, > G3 (patients)","DL2 200 mg QOD oral, N = 3",0
same,"TRAE Blood Lactic Acid increased, All grades (patients)","DL2 200 mg QOD oral, N = 3",0
same,"TRAE Constipation, > G3 (patients)","DL2 200 mg QOD oral, N = 3",0
same,"TRAE Constipation, All grades (patients)","DL2 200 mg QOD oral, N = 3",0
same,"TRAE Decreased appetite, > G3 (patients)","DL2 200 mg QOD oral, N = 3",0
same,"TRAE Decreased appetite, All grades (patients)","DL2 200 mg QOD oral, N = 3",1
same,"TRAE Diarrhoea, > G3 (patients)","DL2 200 mg QOD oral, N = 3",0
same,"TRAE Diarrhoea, All grades (patients)","DL2 200 mg QOD oral, N = 3",1
same,"TRAE Fatigue, > G3 (patients)","DL2 200 mg QOD oral, N = 3",0
same,"TRAE Fatigue, All grades (patients)","DL2 200 mg QOD oral, N = 3",0
same,"TRAE Insomnia, > G3 (patients)","DL2 200 mg QOD oral, N = 3",0
same,"TRAE Insomnia, All grades (patients)","DL2 200 mg QOD oral, N = 3",1
same,"TRAE Nausea, > G3 (patients)","DL2 200 mg QOD oral, N = 3",0
same,"TRAE Nausea, All grades (patients)","DL2 200 mg QOD oral, N = 3",1
same,"TRAE Vomiting, > G3 (patients)","DL2 200 mg QOD oral, N = 3",0
same,"TRAE Vomiting, All grades (patients)","DL2 200 mg QOD oral, N = 3",2
same,TEAE Adrenal insufficiency grade 1,[2],0
same,TEAE Adrenal insufficiency grade 2,[2],0
same,TEAE Adrenal insufficiency grade 3,[2],0
same,TEAE Adrenal insufficiency grade 4,[2],0
same,TEAE Anaemia grade 1,[2],0
same,TEAE Anaemia grade 2,[2],1
same,TEAE Anaemia grade 3,[2],0
same,TEAE Anaemia grade 4,[2],0
same,TEAE Appendicitis perforated grade 1,[2],0
same,TEAE Appendicitis perforated grade 2,[2],0
same,TEAE Appendicitis perforated grade 3,[2],0
same,TEAE Appendicitis perforated grade 4,[2],0
same,TEAE Back pain grade 1,[2],0
same,TEAE Back pain grade 2,[2],0
same,TEAE Back pain grade 3,[2],0
same,TEAE Back pain grade 4,[2],0
same,TEAE Cystitis grade 1,[2],0
same,TEAE Cystitis grade 2,[2],0
same,TEAE Cystitis grade 3,[2],0
same,TEAE Cystitis grade 4,[2],0
same,TEAE Dry skin grade 1,[2],0
same,TEAE Dry skin grade 2,[2],0
same,TEAE Dry skin grade 3,[2],0
same,TEAE Dry skin grade 4,[2],0
same,TEAE Flank pain grade 1,[2],0
same,TEAE Flank pain grade 2,[2],1
same,TEAE Flank pain grade 3,[2],0
same,TEAE Flank pain grade 4,[2],0
same,TEAE Hypertension grade 1,[2],0
same,TEAE Hypertension grade 2,[2],0
same,TEAE Hypertension grade 3,[2],0
same,TEAE Hypertension grade 4,[2],0
same,TEAE Hypotension grade 1,[2],0
same,TEAE Hypotension grade 2,[2],0
same,TEAE Hypotension grade 3,[2],0
same,TEAE Hypotension grade 4,[2],0
same,TEAE Insomnia grade 1,[2],0
same,TEAE Insomnia grade 2,[2],1
same,TEAE Insomnia grade 3,[2],0
same,TEAE Insomnia grade 4,[2],0
same,TEAE Pain in extremity grade 1,[2],0
same,TEAE Pain in extremity grade 2,[2],0
same,TEAE Pain in extremity grade 3,[2],0
same,TEAE Pain in extremity grade 4,[2],0
same,TEAE Pruritus grade 1,[2],0
same,TEAE Pruritus grade 2,[2],0
same,TEAE Pruritus grade 3,[2],0
same,TEAE Pruritus grade 4,[2],0
same,TEAE Psychiatric disorders grade 1,[2],0
same,TEAE Psychiatric disorders grade 2,[2],1
same,TEAE Psychiatric disorders grade 3,[2],0
same,TEAE Psychiatric disorders grade 4,[2],0
same,TEAE Purpura grade 1,[2],0
same,TEAE Purpura grade 2,[2],0
same,TEAE Purpura grade 3,[2],0
same,TEAE Purpura grade 4,[2],0
same,TEAE Urinary retention grade 1,[2],0
same,TEAE Urinary retention grade 2,[2],0
same,TEAE Urinary retention grade 3,[2],0
same,TEAE Urinary retention grade 4,[2],0
same,TEAE Urinary tract disorder grade 1,[2],0
same,TEAE Urinary tract disorder grade 2,[2],0
same,TEAE Urinary tract disorder grade 3,[2],0
same,TEAE Urinary tract disorder grade 4,[2],0
same,"TEAE Cough, grade 1",DL3 400 mg QOD (n=3),1
same,"TEAE Headache, grade 2",DL3 400 mg QOD (n=3),1
same,"TEAE Nausea, grade 1",DL3 400 mg QOD (n=3),1
same,"TEAE Nausea, grade 2",DL3 400 mg QOD (n=3),2
same,"TEAE Neutrophil count decreased, grade 4",DL3 400 mg QOD (n=3),1
same,"TEAE Peripheral sensory neuropathy, grade 1",DL3 400 mg QOD (n=3),1
same,"TEAE Vomiting, grade 1",DL3 400 mg QOD (n=3),2
same,"TRAE Abdominal Pain, > G3 (patients)","DL3 400 mg QOD oral, N = 3",0
same,"TRAE Abdominal Pain, All grades (patients)","DL3 400 mg QOD oral, N = 3",0
